Results published in patent US7615244B2, “Glycopeptide and peptide having a kokumi taste imparting function, and method of imparting the kokumi taste to foods” (Ajinomoto Co., Inc., priority 2003, dated 2009).
Marks after values point to notes of the source that are not given here.

Key:
[1] = Organoleptic evaluation of chicken consommé soup, paired comparison test by taste panelists; conditions: for Panelists choosing the sample as the one with a stronger kokumi taste: vs non-added soup, n = 16
Procedure: 2 g of a commercially available chicken consommé soup (manufactured by Ajinomoto Co., Inc.) was added to 100 mL of water to prepare a chicken consommé soup, and then each of the fractions was added to the chicken consommé soup. […] These two fractions were each again fractionated by reversed phase HPLC (“Carbon-500” manufactured by Tosoh Corporation). The following conditions were used to obtain two peaks at 44.8 minutes and 46.6 minutes. For the fractionation, two solvents A and B were used. Solvent A was a 0.05% by volume trifluoroacetic acid (TFA) aqueous solution, and Solvent B was a 0.05% by volume TFA 50% by volume acetonitrile aqueous solution. The column was equilibrated with Solvent A. After injecting a sample, the proportion of Solvent B was increased linearly to 100% in 167 min. The fractionated two peaks were analyzed with an LC-MS/MS (liquid chromatography-tandem mass spectrometry), to confirm that the former peak had fragments, that is, [M+H]^+=m/z 1640, 1494, 1478, 1362, 1332, 1316, 1200, 1184, 1038, 876, 819, 673, and 470, and that the latter peak had fragments, that is, [M+H]^+=m/z 1478, 1346, 1332, 1316, 1200, 1184, 1038, 876, 819, 673, and 470. Further, the former and latter peaks were analyzed by some known methods of analysis such as NMR, a peptide sequencer, an enzymatic decomposition treatment, and the like (R.Takahashi, “Biochemical Experiment Methods 23: Method for Studying Glycoprotein Sugar Chain,” published by Gakkai Shuppan Center, 1989), to confirm that the peaks were due to the glycopeptides having the structures represented by Sequence formulas (I) (SEQ ID NO: 1) and (II) (SEQ ID NO: 1), respectively.
In order to confirm the kokumi taste imparting function and the threshold value of the glycopeptides and the peptide represented by Sequence formulas (I) to (III) (SEQ ID NO: 1) (hereinafter, the glycopeptides and the peptide represented by Sequence formulas (I) to (III) may also be referred to as Glycopeptide I, Glycopeptide II, and Peptide III, respectively), Glycopeptide I and Glycopeptide II were each added to a chicken consommé soup in such that the concentration thereof would be 0.1 ppb to 1.0 ppm by weight upon eating, and Peptide III was added to the chicken consommé soup in such that the concentration thereof would be 0.1 ppb to 100 ppm by weight upon eating. As a control, a non-added chicken consommé soup was prepared. For each of the three glycopeptides and peptide, organoleptic evaluation was carried out by 16 taste panelists according to a paired comparison test (the panelists should choose one with a stronger kokumi taste). In the above organoleptic evaluation, there was a significant difference in the effect caused by adding Glycopeptide I or II or Peptide III in the case where the concentration thereof was 1 ppb by weight or more upon eating. Therefore, the lower limit of the threshold value was set to 1 ppb by weight.

[2] = Organoleptic evaluation of cheese sauce, paired comparison test; conditions: added 1 ppm by weight; vs non-added; n = 14
Procedure: In order to verify a taste improving function for cheese sauce, the three glycopeptides and peptide were each added in an amount of 1 ppm by weight to a cheese sauce prepared according to the formulation shown in the following Table 4, and then an organoleptic evaluation was performed in the same manner as in Example 1. Each of the sauces added with one of the three glycopeptides and peptide was subjected to organoleptic evaluation by 14 taste panelists according to a paired comparison test, using non-added cheese sauce as the control.
In order to verify the taste improving function of the liquid comprising enzymatically decomposed wheat gluten, that is, a seasoning containing the three glycopeptides and peptide, for cheese sauce, the seasoning comprising enzymatically decomposed wheat gluten (that is, the powdered seasoning of Example 1 formed from the decolorized liquid from which the activated carbon had been removed) was added in an amount of 0.05% by weight to a cheese sauce prepared according to the formulation shown in Table 4, and then an organoleptic evaluation was performed in the same manner as in Example 1. Organoleptic evaluation was carried out by 20 taste panelists according to a paired comparison test, using the non-added cheese sauce as the control.

[3] = Organoleptic evaluation of beef extract solution, paired comparison test; set-up: key to Kokumi taste vs control (mark): Δ: Equal or inferior in the kokumi taste to the control; O: Stronger in the kokumi taste than the control; OO: Remarkably stronger in the kokumi taste than the control; conditions: for Kokumi taste vs control (mark): 14 panelists
Procedure: In order to verify a taste improving function for a commercially available beef extract (manufactured by Bordon), the three glycopeptides and peptide were each added in an amount of 10 ppb by weight to a beef extract solution formulated according to the mixing ratio shown in the following Table 6, and then an organoleptic evaluation was performed in the same manner as in Example 1. Each resulting solution was subjected to organoleptic evaluation by 16 taste panelists according to a paired comparison test, using the non-added beef extract solution as the control. […]
In order to verify a taste improving function for a commercially available beef extract (manufactured by Bordon) in the same manner as in the organoleptic evaluation of Example 1, the glycopeptides and peptides listed in the following Table 15, were each added in an amount of 10 ppb, 1 ppm, or 100 ppm by weight to beef extract solutions formulated according to the mixing ratio shown in Table 6 above. Each resulting solution was subjected to organoleptic evaluation by 14 taste panelists according to a paired comparison test, using the non-added beef extract solution as the control.

[4] = Organoleptic evaluation of Mentsuyu, paired comparison test; conditions: added 1 ppb by weight; vs non-added; n = 16
Text: In order to verify a taste improving function for “Mentsuyu” (a soup for Japanese noodle) in the same manner as in the organoleptic evaluation of Example 1, the three glycopeptides and peptide were each added in an amount of 1 ppb by weight to Mentsuyu prepared according to the formulation shown in the following Table 2. Each resulting solution was subjected to organoleptic evaluation by 16 taste panelists according to a paired comparison test, using non-added Mentsuyu as the control.
In order to verify the taste improving function of a liquid comprising enzymatically decomposed wheat gluten, that is, a seasoning containing the three glycopeptides and peptide, for Mentsuyu, the seasoning comprising enzymatically decomposed wheat gluten (that is, the decolorized liquid of Example 1 from which the activated carbon had been removed) was added in an amount of 0.1% by volume to Mentsuyu prepared according to the formulation shown in Table 2, and then an organoleptic evaluation was performed in the same manner as in Example 1. Organoleptic evaluation was carried out by 20 taste panelists according to a paired comparison test, using the non-added Mentsuyu as the control.

Question: What does the source list for “Val-Asn-His-Thr (VNHT; printed: Val-Asn-His-Thr) [Peptide III]”?
Answer: Panelists choosing the sample as the one with a stronger kokumi taste ([1]; amount added 0.1 ppb): 9; Panelists choosing the sample as the one with a stronger kokumi taste ([1]; amount added 1.0 ppb): 13*; Panelists choosing the sample as the one with a stronger kokumi taste ([1]; amount added 1.0 ppm): 16***; Panelists choosing the sample as the one with a stronger kokumi taste ([1]; amount added 10 ppb): 14**; Panelists choosing the sample as the one with a stronger kokumi taste ([1]; amount added 100 ppm): 16***; Lower limit of the threshold value (kokumi taste imparting function) ([1]; concentration upon eating giving a significant difference vs non-added soup): 1 ppb by weight; Stronger kokumi taste (panelists) [2]: 12*; Kokumi taste vs control (mark) ([3]; added 1 ppm by weight): ◯◯; Kokumi taste vs control (mark) ([3]; added 10 ppb by weight): ◯◯; Stronger kokumi taste (panelists) ([3]; added 10 ppb by weight, vs non-added, n = 16): 13*; Kokumi taste vs control (mark) ([3]; added 100 ppm by weight): ◯◯; Stronger kokumi taste (panelists) [4]: 13*

Question: Which “Kokumi taste vs control (mark)” value ([3]; added 1 ppm by weight) does the source give for His-Ser [reference compound] here?
Answer: Δ

Question: And the “Kokumi taste vs control (mark)” value ([3]; added 10 ppb by weight)?
Answer: Δ

Question: And the “Kokumi taste vs control (mark)” value ([3]; added 100 ppm by weight)?
Answer: Δ

Question: For Val-Asn [reference compound], which “Kokumi taste vs control (mark)” value ([3]; added 1 ppm by weight) is on record?
Answer: Δ

Question: And the “Kokumi taste vs control (mark)” value ([3]; added 10 ppb by weight)?
Answer: Δ

Question: And the “Kokumi taste vs control (mark)” value ([3]; added 100 ppm by weight)?
Answer: Δ

Question: With Val-Asn-His as the substance, how does the “Kokumi taste vs control (mark)” value ([3]; added 1 ppm by weight) read?
Answer: ◯◯

Question: And the “Kokumi taste vs control (mark)” value ([3]; added 10 ppb by weight)?
Answer: ◯

Question: What about the “Kokumi taste vs control (mark)” value ([3]; added 100 ppm by weight) of the same substance?
Answer: ◯◯

Question: Which “Kokumi taste vs control (mark)” value ([3]; added 1 ppm by weight) does the source give for Val-Gln [reference compound] here?
Answer: Δ

Question: And the “Kokumi taste vs control (mark)” value ([3]; added 10 ppb by weight)?
Answer: Δ

Question: And the “Kokumi taste vs control (mark)” value ([3]; added 100 ppm by weight)?
Answer: Δ

Question: With Asn-His-Thr as the substance, how does the “Kokumi taste vs control (mark)” value ([3]; added 1 ppm by weight) read?
Answer: ◯◯

Question: And the “Kokumi taste vs control (mark)” value ([3]; added 10 ppb by weight)?
Answer: ◯

Question: What about the “Kokumi taste vs control (mark)” value ([3]; added 100 ppm by weight) of the same substance?
Answer: ◯◯

Question: Which “Kokumi taste vs control (mark)” value ([3]; added 1 ppm by weight) does the source give for Asn-His here?
Answer: ◯

Question: And the “Kokumi taste vs control (mark)” value ([3]; added 10 ppb by weight)?
Answer: ◯

Question: What about the “Kokumi taste vs control (mark)” value ([3]; added 100 ppm by weight) of the same substance?
Answer: ◯◯
